Results published in patent US20240156996A1, “BIOCOMPATIBLE RADIONUCLIDE-CONTAINING COMPOSITIONS AND METHODS OF USE” (priority 2022, published 2024).

Experiment: Encapsulation efficiency of 225Ac within PLGA nanoparticles (γ-ray spectroscopy after washing)
Assay type: physicochemical
Settings: 95:5, 90:10, 75:25 MeOH:DI H2O; FIG. 2
Description: A double-emulsion solvent evaporation method was adapted for the synthesis of PLGA-chelator compound radioisotope complex. The main differences include: (1) using a cup-horn sonicator to generate emulsions and (2) decreasing the reagent volumes to minimize the generation of radiological waste. In a typical synthesis, 100 μL of PLGA dissolved in EtOAc at 40 mg/mL were mixed with 10 μL of 225Ac-chelator compound radioisotope complex in a polar solution (i.e., DI H2O, MeOH, or a mixture of both) within an Eppendorf tube. This mixture was sonicated for 30 s in a cup-horn sonicator to generate a water/oil emulsion. […]
As described above, PLGA nanoparticles were synthesized encapsulating free ^225Ac or ^225Ac-BLPhen complex in a methanol/deionized water (MeOH/DI H2O) mixture. […] The encapsulation efficiency of ^225Ac was determined after washing the PLGA nanoparticle suspensions three times with DI H2O. […] The PLGA nanoparticle suspension, the supernatant, and the Eppendorf tube used for sonication were assayed using γ-ray spectroscopy on a high purity germanium detector coupled to a PC-based multichannel analyzer to account for total radioactivity distribution. […] Energy and efficiency calibrations were determined by γ-ray sources traceable to the National Institute of Standards and Technology.

[225Ac] [^225Ac, actinium-225]
effect of increasing the water content in the MeOH/DI H2O mixture on encapsulation efficiency within PLGA nanoparticles: decreased the encapsulation efficiency
